The values that follow come from patent US20100216799A1, “PHTHALAZINE AND PYRIDO[3,4-D]PYRIDAZINE COMPOUNDS AS H1 RECEPTOR ANTAGONISTS” (Glaxo Group Limited, priority 2007, published 2010).

Format in all cases: cell-based
The target of test [1] is T1, human H1 receptor (Homo sapiens, UniProt P35367).
T1 construct: expressed in transfected cells
Briefly: Histamine H1 functional antagonist assay (FLIPR): determination of functional pKi values. Conditions: CHO cells expressing human H1 receptor, histamine at EC80, read-out: average pKa (pKb) at H1 (converted). The protocol: (§1) The human H1 receptor is cloned using known procedures described in the literature [Biochem. Biophys. Res. Commun., 201(2):894 (1994)]. Chinese hamster ovary (CHO) cells stably expressing the human H1 receptor are generated according to known procedures described in the literature [Br. J. Pharmacol., 117(6):1071 (1996)].
The histamine H1 cell line is seeded into non-coated black-walled clear bottom 384-well tissue culture plates in alpha minimum essential medium (Gibco/Invitrogen, cat no. 22561-021), supplemented with 10% dialysed foetal calf serum (Gibco/Invitrogen cat no. 12480-021) and 2 mM L-glutamine (Gibco/Invitrogen cat no 25030-024) and is maintained overnight at 5% CO2, 37° C.
Excess medium is removed from each well to leave 10 μl. 30 μl loading dye (250 μM Brilliant Black, 2 μM Fluo-4 diluted in Tyrodes buffer+probenecid (145 mM NaCl, 2.5 mM KCl, 10 mM HEPES, 10 mM D-glucose, 1.2 mM MgCl2, 1.5 mM CaCl2, 2.5 mM probenecid, pH adjusted to 7.40 with NaOH 1.0 M)) is added to each well and the plates are incubated for 60 min at 5% CO2, 37° C.
10 μl of test compound, diluted to the required concentration in Tyrodes buffer+probenecid (or 10 μl Tyrodes buffer+probenecid as a control) is added to each well and the plate is incubated for 30 min at 37° C., 5% CO2. The plates are then placed into a FLIPR™ (Molecular Devices, UK) to monitor cell fluorescence (λex=488 nm, λEM=540 nm) in the manner described in Sullivan et al., (In: Lambert DG (ed.), Calcium Signaling Protocols, New Jersey: Humana Press, 1999, 125-136) before and after the addition of 10 μl histamine at a concentration that results in the final assay concentration of histamine being EC80.
Functional antagonism is indicated by a suppression of histamine induced increase in fluorescence, as measured by the FLIPR™ system (Molecular Devices). By means of concentration effect curves, functional affinities are determined using standard pharmacological mathematical analysis.

In test [2] the target is T1, human H1 receptor. In words: Histamine H1 functional antagonist assay (FLIPR): antagonist duration after washout. The following applies: at one or more time points, typically 30-270 min. The protocol: as §1
To determine the antagonist duration, cells are cultured overnight in non-coated black-walled clear bottom 96-well tissue culture plates, are washed with PBS and are incubated with a concentration of antagonist chosen to give an approximate DR in the range 30-300. Following the 30 min antagonist incubation period, the cells are washed two or three times with 200 μl of PBS and then 100 μl Tyrodes buffer is added to each well to initiate antagonist dissociation. Following incubation for predetermined times, typically 30-270 min at 37° C., the cells are then washed again with 200 μl PBS and are incubated with 100 μl Tyrodes buffer containing Brilliant Black, probenecid and Fluo-4 for 45 min at 37° C., as described above. After this period, the cells are challenged with histamine in the FLIPR™ as described above. The dose ratio at each time point is used to determine the fractional H1 receptor occupancy by the following equation: fractional receptor occupancy=(DR-1)/DR. The decrease in receptor occupancy over time approximates to a straight line and is analysed by linear regression. The slope of this straight line fit is used as an index of the dissociation rate of the antagonist. The dose ratios for antagonist treated cells and for antagonist treated and washed cells at each time point are used to calculate a relative dose ratio (rel DR) which is also used as an index of antagonist duration. Antagonists with long duration of action produce rel DR values close to 1, and antagonists with short duration of action produce rel DR values that approaches the dose ratio value obtained for antagonist treatment alone.

Test [3] deals with T1, human H1 receptor. In words: Histamine H1 functional antagonist assay (FLIPR): determination of antagonist pA2. Conditions: CHO cells expressing H1 receptor, shift of histamine concentration response curve. The protocol:
The human H1 receptor is cloned using known procedures described in the literature [Biochem. Biophys. Res. Commun., 201(2):894 (1994)]. Chinese hamster ovary (CHO) cells stably expressing the human H1 receptor are generated according to known procedures described in the literature [Br. J. Pharmacol., 117(6):1071 (1996)]. The histamine H1 receptor expressing CHO cells are seeded into non-coated black-walled clear bottom 96-well tissue culture plates as described above. Following overnight culture, growth medium is removed from each well, washed with 200 μl PBS and is replaced with 50 μl loading dye (250 μM Brilliant Black, 1 μM Fluo-4 diluted in Tyrodes buffer+probenecid (145 mM NaCl, 2.5 mM KCl, 10 mM HEPES, 10 mM D-glucose, 1.2 mM MgCl2, 1.5 mM CaCl2, 2.5 mM probenecid, pH adjusted to 7.40 with NaOH 1.0 M)). Cells are incubated for 45 min at 37° C. The loading buffer is removed and the cells are washed as above, and 90 μl of Tyrodes buffer+probenecid is added to each well. 10 μl of test compound, diluted to the required concentration in Tyrodes buffer+probenecid (or 10 μl Tyrodes buffer+probenecid as a control) is added to each well and the plate is incubated for 30 min at 37° C., 5% CO2. The plates are then placed into a FLIPR™ (Molecular Devices, UK) to monitor cell fluorescence (λex=488 nm, λEM=540 nm) in the manner described in Sullivan et al., (In: Lambert DG (ed.), Calcium Signaling Protocols, New Jersey: Humana Press, 1999, 125-136) before and after the addition of 50 μl histamine over a concentration range of 1 mM-0.1 nM. The resultant concentration response curves are analysed by non-linear regression using a standard four parameter logistic equation to determine the histamine EC50, the concentration of histamine required to produce a response of 50% of the maximum response to histamine. The antagonist pA2 is calculated using the following standard equation: pA2=log(DR-1)−log [B] where DR=dose ratio, defined as EC50antagonist-treated/EC50control and [B]=concentration of antagonist.

T1 sequence (P35367 whole entry): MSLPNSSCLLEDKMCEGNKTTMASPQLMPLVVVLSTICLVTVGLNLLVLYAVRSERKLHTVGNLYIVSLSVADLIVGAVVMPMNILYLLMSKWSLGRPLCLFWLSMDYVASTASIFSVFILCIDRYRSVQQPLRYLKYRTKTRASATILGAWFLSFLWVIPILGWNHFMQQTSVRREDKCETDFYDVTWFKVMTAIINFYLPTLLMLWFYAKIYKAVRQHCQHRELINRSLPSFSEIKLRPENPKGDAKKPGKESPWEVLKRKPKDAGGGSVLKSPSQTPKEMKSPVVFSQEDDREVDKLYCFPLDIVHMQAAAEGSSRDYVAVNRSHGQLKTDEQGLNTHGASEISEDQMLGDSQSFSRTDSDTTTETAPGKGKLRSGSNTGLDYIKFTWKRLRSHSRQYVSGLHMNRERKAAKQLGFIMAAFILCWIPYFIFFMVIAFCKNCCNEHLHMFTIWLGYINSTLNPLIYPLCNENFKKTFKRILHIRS

Turning to `CC(C)S(=O)(=O)NCCN1CCC[C@@H]1Cn1nc(Cc2ccc(Cl)cc2)c2ccccc2c1=O` [Example 8, N-[2-((2R)-2-{[4-[(4-Chlorophenyl)methyl]-1-oxo-2(1H)-phthalazinyl]methyl}-1-pyrrolidinyl)ethyl]-2-propanesulfonamide], the Kb on human H1 receptor [1] was less than 100 nM; on human H1 receptor [3] it was less than 1 nM. Further, the “duration of action compared with azelastine” value on human H1 receptor [2] is given as “longer duration of action than azelastine”.

With `CCS(=O)(=O)[C@H](C)CCN1CCC[C@@H]1Cn1nc(Cc2ccc(Cl)cc2)c2ccccc2c1=O` [Example 5B, 4-[(4-Chlorophenyl)methyl]-2-({(2R)-1-[(3R)-3-(ethylsulfonyl)butyl]-2-pyrrolidinyl}methyl)-(2H)-phthalazinone], the Kb on human H1 receptor [3] is less than 10 nM.

For `COCCCNS(=O)(=O)CCN1CCC[C@@H]1Cn1nc(Cc2ccc(Cl)cc2)c2ccccc2c1=O` [Example 10, 2-((2R)-2-{[4-[(4-Chlorophenyl)methyl]-1-oxo-2(1H)-phthalazinyl]methyl}-1-pyrrolidinyl)-N-[3-(methyloxy)propyl]ethanesulfonamide], the Kb on human H1 receptor [1] is less than 100 nM; on human H1 receptor [3] it was less than 10 nM. The “duration of action compared with azelastine” value on human H1 receptor [2] is given as “longer duration of action than azelastine”.

Consider `CCS(=O)(=O)CCCN1CCC[C@@H]1Cn1nc(Cc2ccc(Cl)cc2)c2cnccc2c1=O` [Example 12, 4-[(4-Chlorophenyl)methyl]-2-({(2R)-1-[3-(ethylsulfonyl)propyl]-2-pyrrolidinyl}methyl)pyrido[3,4-d]pyridazin-1(2H)-one], for which, on human H1 receptor [2], the “duration of action compared with azelastine” value is “longer duration of action than azelastine”. Moreover, the Kb at human H1 receptor [3] is less than 1 nM.

On to `CCCS(=O)(=O)NCCN1CCC[C@@H]1Cn1nc(Cc2ccc(Cl)cc2)c2ccccc2c1=O` [Example 7, N-[2-((2R)-2-{[4-[(4-Chlorophenyl)methyl]-1-oxo-2(1H)-phthalazinyl]methyl}-1-pyrrolidinyl)ethyl]-1-propanesulfonamide], for which the Kb at human H1 receptor [1] was less than 100 nM; on human H1 receptor [3] it was less than 1 nM. The “duration of action compared with azelastine” value at human H1 receptor [2] was “longer duration of action than azelastine”.

For the compound `CCS(=O)(=O)[C@@H](C)CCN1CCC[C@@H]1Cn1nc(Cc2ccc(Cl)cc2)c2ccccc2c1=O` [Example 5A, 4-[(4-Chlorophenyl)methyl]-2-({(2R)-1-[(3S)-3-(ethylsulfonyl)butyl]-2-pyrrolidinyl}methyl)-(2H)-phthalazinone], the Kb on human H1 receptor [3] was less than 10 nM.

Take `CCCNC(=O)NCCN1CCC[C@@H]1Cn1nc(Cc2ccc(Cl)cc2)c2cnccc2c1=O` [Example 14, N-[2-((2R)-2-{[4-[(4-chlorophenyl)methyl]-1-oxopyrido[3,4-d]pyridazin-2(1H)-yl]methyl}-1-pyrrolidinyl)ethyl]-M-propylurea]: the Kb on human H1 receptor [3] is less than 1 nM.

Consider `CCS(=O)(=O)NCCN1CCC[C@@H]1Cn1nc(Cc2ccc(Cl)cc2)c2ccccc2c1=O` [Example 6, N-[2-((2R)-2-{[4-[(4-Chlorophenyl)methyl]-1-oxo-2(1H)-phthalazinyl]methyl}-1-pyrrolidinyl)ethyl]ethanesulfonamide], for which, on human H1 receptor [2], the “duration of action compared with azelastine” value was “longer duration of action than azelastine”. On human H1 receptor [3], the Kb is less than 1 nM.

`O=c1c2ccccc2c(Cc2ccc(Cl)cc2)nn1C[C@H]1CCCN1CCS(=O)(=O)N1CCCCC1` [Example 2, 4-[(4-Chlorophenyl)methyl]-2-({(2R)-1-[2-(1-piperidinylsulfonyl)ethyl]-2-pyrrolidinyl}methyl)-1(2H)-phthalazinone]: the Kb on human H1 receptor [1] was less than 100 nM.

With `CCS(=O)(=O)CCN1CCC[C@@H]1Cn1nc(Cc2ccc(Cl)cc2)c2ccccc2c1=O` [Example 1, 4-[(4-Chlorophenyl)methyl]-2-({(2R)-1-[2-(ethylsulfonyl)ethyl]-2-pyrrolidinyl}methyl)-1(2H)-phthalazinone], on human H1 receptor [3], the Kb was less than 1 nM.

For the compound `CCS(=O)(=O)C(C)CCN1CCC[C@@H]1Cn1nc(Cc2ccc(Cl)cc2)c2ccccc2c1=O` (stereo partly drawn) [Example 4, 4-[(4-Chlorophenyl)methyl]-2-({(2R)-1-[3-(ethylsulfonyl)butyl]-2-pyrrolidinyl}methyl)-1(2H)-phthalazinone], at human H1 receptor [3], the Kb is less than 1 nM.

As to `CCCNC(=O)NCCN1CCC[C@@H]1Cn1nc(Cc2ccc(Cl)cc2)c2ccccc2c1=O` [Example 11, N-[2-((2R)-2-{[4-[(4-Chlorophenyl)methyl]-1-oxo-2(1H)-phthalazinyl]methyl}-1-pyrrolidinyl)ethyl]-M-propylurea], the “duration of action compared with azelastine” value on human H1 receptor [2] is “longer duration of action than azelastine”. Besides, the Kb on human H1 receptor [3] was less than 1 nM.

Consider `CCS(=O)(=O)CCCN1CCC[C@@H]1Cn1nc(Cc2ccc(Cl)cc2)c2ccccc2c1=O` [Example 3, 4-[(4-Chlorophenyl)methyl]-2-({(2R)-1-[3-(ethylsulfonyl)propyl]-2-pyrrolidinyl}methyl)-1(2H)-phthalazinone], for which the “duration of action compared with azelastine” value at human H1 receptor [2] was “longer duration of action than azelastine”. The Kb at human H1 receptor [3] is less than 1 nM.

Take `CCS(=O)(=O)CCN1CCC[C@@H]1Cn1nc(Cc2ccc(Cl)cc2)c2cnccc2c1=O` [Example 13, 4-[(4-Chlorophenyl)methyl]-2-({(2R)-1-[2-(ethylsulfonyl)ethyl]-2-pyrrolidinyl}methyl)pyrido[3,4-d]pyridazin-1(2H)-one]: the Kb on human H1 receptor [3] was less than 10 nM.
